Experimental data as given in patent US9850205B2, “Stable apremilast crystalline form II free of solvate and method of making the same” (UTOPHARM (SHANGHAI) CO., LTD, priority 2015, dated 2017).

What was measured:
[1] = Influence factors (stability) experiments of Form I, Form II and Form B; assay type: physicochemical
Text: 2. Influence factors experiments of Form I, Form II and Form B:
In addition, the same batch of raw materials was crystallized in acetone/ethyl alcohol to produce Form B and crystallized in acetone/water to produce Form I and Form II, then compare the appearance and color of the products.

[2] = Solubility of Form II and Form B in common solvents; assay type: physicochemical; conditions: acetone, butanone, ethyl alcohol, methanol, ethyl acetate, acetonitrile, dichloromethane, tetrahydrofuran, petroleum ether, n-hexane, water
Experimental: The solubility of Form II and Form B in common solvents such as acetone, butanone, ethyl alcohol, methanol, ethyl acetate, acetonitrile, dichloromethane, tetrahydrofuran, petroleum ether, n-hexane, water was tested and compared.

[3] = Electrostatic effect under the same micronization condition; assay type: physicochemical
Text: Large electrostatic effect will adversely affect the preparation processing.

[4] = Comparison of pharmacokinetics in Beagle dogs (oral capsule of crude drug powder, LC-MS/MS plasma concentration); assay type: in vivo; conditions: both sexes, dog, 30 mg crude drug powder capsule, single period
Experimental: 6 healthy Beagle dogs weight 6-8 kg with half males and half females were divided randomly into 2 groups, each group having 3.
According to the administration route and dosage amounts, medicine is administrated orally and the dosage is 30 mg/dog/time. After crude drug powder of two crystal forms being weighed about 30 mg respectively, capsule shell is used to be filled and 10 ml water is used accompanied with administration. The Beagle dogs were fasted for 12 hours before the study, and food is provided in 4 hours after administration. Water deprivation was not required during the whole study. Specific administration groups are designed in the table as below.
0.5ml venous blood was collected via the small saphenous veins 10, 30 min, 1, 2, 4, 6, 8, 10, 12, 24, 48 and 72 h before (0 hour) or after administration. After centrifugation for 5 minutes at 8000 rpm, blood plasma is separated out and placed in anti freezing plastic test tube for storing in refrigerator at −20 C temporarily.
Concentration of APST in blood plasma is tested by LC-MS/MS method. The linearity range of APST testing is 5 to 5000 ng/ml, and the linear is good.

[5] = In vivo pharmacokinetic comparison study in SD rats (gavage, LC-MS/MS plasma concentration); conditions: for AUC(0-t) / Cmax / Tmax: SD (Sprague-Dawley), rat, plasma, po, gavage 10 mg/kg suspension; for AUC(0-t): read-out: area under the curve AUC0-t; for Cmax: read-out: peak concentrations Cmax; for Tmax: 10 mg/kg
Experimental: Twelve SD rats weight 200-220 g with half males and half females were divided randomly into 2 groups (named as group A and group B).
According to the administration route and dosage amounts provided in FDA references, the two crystalline forms were given by gavage to investigate their pharmacokinetic behaviors in rats. The dosage amounts of the two forms are both 10 mg/kg (solvent is 1% carboxymethylcellulose). The rats were fasted for 12 hs before the study, food was provided 4 hs after administration, water deprivation was not required during the whole study. • Blood was collected via the fundus venous plexus 10, 30mins, 1, 2, 4, 6, 8, 10, 12 and 24 hs after administration. The collected blood was placed on ice and centrifuged for 5min at 8000 rpm, plasma was separated, and cryoperserved in a −20° C. refrigerator. LC-MS/MS was used to determine the concentration of APST in plasma. Linearity range of APST in plasma is 2-1000ng/ml, the linearity was good.

[6] = Thermostability experiments: forms suspended in water and stirred at 60 and 100° C.; assay type: physicochemical; conditions: for increased amount of related substance, N-deacetylates: stirred in water at 100° C. for 48 h; for electrostatic effect: suspended in water at 100° C., stirred 24 h, filtered and dried; for DSC / X-ray powder diffraction (change) / melting temperature (change) / X-ray powder diffraction pattern (change): suspended in water; for melting temperature (change): numbers are decreases
Experimental: Apremilast Crystalline Form II and Form B were suspended in water and stirred for 24-48 h under 60 and 100° C., respectively, then cooled, filtered, and dried, and X-ray powder diffraction patterns, DSC patterns, melting temperature and related substance were determined (see Table 4).
Apremilast Crystalline Form II and Form B were suspended in water, respectively, stirred at 60-100° C. for 48 h sampled at a certain time interval and filtered, dried to determine the change of melting temperature; sampled at 24 h, 48 h, filtered and dried to determine change of XRPD patterns, DSC patterns, melting temperature, electrostatic effects, and related substances.

[7] = Crystalline form conversion study, suspension in acetone/water at reflux; assay type: physicochemical; conditions: suspended in acetone/water (1:3), refluxing temperature; Form B 36 h, Form D 8-10 h
Experimental: In addition, pure Form II can obtained by suspending crashed Forms A, B, C, D, E, F and/or G in acetone/water and stirring at 50° C. to refluxing temperature for 1-48 h.
Apremilast Crystalline Form B (5.0 g, particle size less than 300 mesh) was suspended in 60 ml acetone/water (1:3), heated to refluxing temperature and stirred for 36 h, then cooled while stirring, filtered, dried at 60° C. to obtain about 4.88 g of Apremilast Crystalline Form II, mp:148.3-150.3° C.
Apremilast Crystalline Form D (5.0 g, particle size less than 200mesh) was suspended in 60m1 acetone/water (1:3), heated to refluxing temperature and stirred for 8-10 h, then cooled while stirring, filtered, dried at 60° C. to obtain about 4.60 g of Apremilast Crystalline Form II, mp:148.3-150.5° C.

[8] = both sexes, SD rats, males and females together, read-out: time to peak Tmax
[9] = both sexes, SD rats, males and females together, read-out: time to peak Tmax (median)
[10] = both sexes, SD rats, males and females together
[11] = female, female rats, read-out: time to peak Tmax
[12] = female, female rats, read-out: time to peak Tmax (median)
[13] = male, male rats, read-out: time to peak Tmax
[14] = male, male rats, read-out: time to peak Tmax (median)

| SMILES | stability under high temperature and high humidity conditions [1] | Change of related substance/high temperature for 10 days [1] | moisture absorption/humidity 92.5% Change of related substances [1] | moisture absorption/humidity 92.5% weight gain [1] | Change of related substances/light exposure for 10 days [1] | solubility, Form II compared with Form B [2] | electrostatic effect [3] | AUC(0-inf) [4] | AUC(0-t) [4] | Cmax [4] | Tmax [4] | AUC(0-t) ([5]; female rats) | Cmax ([5]; female rats) | AUC(0-t) ([5]; male rats) | Cmax ([5]; male rats) | Tmax [5, 8] | Tmax [5, 9] | AUC(0-t) [5, 10] | Cmax [5, 10] | Tmax [5, 11] | other results |
| --- | --- | --- | --- | --- | --- | --- | --- | --- | --- | --- | --- | --- | --- | --- | --- | --- | --- | --- | --- | --- | --- |
| CCOc1cc(C(CS(C)(=O)=O)N2C(=O)c3cccc(NC(C)=O)c3C2=O)ccc1OC (single isomer, unassigned; (+)) [Form II, (+)-2-[1-(3-ethoxy-4-methoxyphenyl)-2-methylsulfonylethyl]-4-acetylaminoisoindoline-1,3-dione] | stable | Essentially no | essentially no | <1.0% | essentially no | essentially no difference | weak or no electrostatic effect | 38200 ± 13000 ng·h/mL | 37700 ± 22400 ng·h/mL | 2050 ± 357 ng/mL | 9 ± 13 h | 10600 ± 1050 ng·h/mL | 906 ± 179 ng/mL | 446 ± 81.2 ng·h/mL | 108 ± 16.1 ng/mL | 1 to 6 h | 3 h | 5530 ± 5610 ng·h/mL | 507 ± 452 ng/mL | 4 to 6 h | exposure of Form II relative to the exposure of Form B ([5]; female SD rats): 1.5 times; Tmax [5, 12]: 6 h; Tmax [5, 13]: 1 to 2 h; Tmax [5, 14]: 1 h; increased amount of related substance, N-deacetylates [6]: 0.046%; electrostatic effect [6]: essentially no electrostatic effect; DSC ([6]; 60° C., 48 h): 150 °C; X-ray powder diffraction (change) ([6]; 60° C., 48 h): essentially no; melting temperature (change) ([6]; 60° C., 48 h): essentially no; DSC ([6]; 100° C., 24~48 h): 150 °C; X-ray powder diffraction pattern (change) ([6]; 100° C., 24~48 h): essentially no; melting temperature (change) ([6]; 100° C., 24~48 h): essentially no |
| CCOc1cc([C@@H](CS(C)(=O)=O)N2C(=O)c3cccc(NC(C)=O)c3C2=O)ccc1OC [Form B, (+)-2-[1-(3-ethoxy-4-methoxyphenyl)-2-methylsulfonylethyl]-4-acetylaminoisoindoline-1,3-dione] | stable |  |  | <1.0% |  | essentially no difference | higher electrostatic effect | 38500 ± 20500 ng·h/mL | 38000 ± 20500 ng·h/mL | 2410 ± 377 ng/mL | 1.7 ± 0.6 h | 7000 ± 1140 ng·h/mL | 904 ± 28.5 ng/mL | 530 ± 70 ng·h/mL | 142 ± 14 ng/mL | 1.6 h | 2.5 h | 3770 ± 3620 ng·h/mL | 523 ± 417 ng/mL | 2 to 6 h | conversion of crystalline form (XRPD pattern and DSC pattern) [7]: complete conversion to Form II; exposure of APST-B as percentage of the exposure of APST-II ([5]; SD rats, males and females together, gavage 10 mg/kg): about 68.07%; AUC0-t of APST-B as percentage of that of APST-II ([5]; female rats, gavage 10 mg/kg): 65.9%; Tmax [5, 12]: 4 h; AUC0-t of APST-B as percentage of that of APST-II ([5]; male rats, gavage 10 mg/kg): ~119.0%; Cmax of APST-B as percentage of that of APST-II ([5]; male rats, gavage 10 mg/kg): about 132.3%; Tmax [5, 13]: 1 h; Tmax [5, 14]: 1 h; increased amount of related substance, N-deacetylates [6]: 0.059%; electrostatic effect [6]: serious electrostatic effect; DSC ([6]; 60° C., 48 h): 157 °C; X-ray powder diffraction (change) ([6]; 60° C., 48 h): weak; melting temperature (change) ([6]; 60° C., 48 h): Decreased 2-3 °C; X-ray powder diffraction pattern (change) ([6]; 100° C., 24~48 h): Weak absorption; melting temperature (change) ([6]; 100° C., 24~48 h): Decreased 3-4 °C |
| CCOc1cc([C@@H](CS(C)(=O)=O)N2C(=O)c3cccc(NC(C)=O)c3C2=O)ccc1OC [Form I, (+)-2-[1-(3-ethoxy-4-methoxyphenyl)-2-methylsulfonylethyl]-4-acetylaminoisoindoline-1,3-dione] | stable | Essentially no | essentially no |  | essentially no |  |  |  |  |  |  |  |  |  |  |  |  |  |  |  |  |
